The record followed here is publication PMC7202080 (Cell calcium, 2020).

For this test, the target named is TRPM7 (Mus musculus, UniProt Q923J1). As to the kind of experiment: Fura-2 Ca2+ imaging in LS8 cells. The format is cell-based.

In general, EC50 refers to the concentration needed to bring the measured effect to its halfway point. Read a low EC50 as a more potent agent.

Chain of TRPM7 (Q923J1 whole entry): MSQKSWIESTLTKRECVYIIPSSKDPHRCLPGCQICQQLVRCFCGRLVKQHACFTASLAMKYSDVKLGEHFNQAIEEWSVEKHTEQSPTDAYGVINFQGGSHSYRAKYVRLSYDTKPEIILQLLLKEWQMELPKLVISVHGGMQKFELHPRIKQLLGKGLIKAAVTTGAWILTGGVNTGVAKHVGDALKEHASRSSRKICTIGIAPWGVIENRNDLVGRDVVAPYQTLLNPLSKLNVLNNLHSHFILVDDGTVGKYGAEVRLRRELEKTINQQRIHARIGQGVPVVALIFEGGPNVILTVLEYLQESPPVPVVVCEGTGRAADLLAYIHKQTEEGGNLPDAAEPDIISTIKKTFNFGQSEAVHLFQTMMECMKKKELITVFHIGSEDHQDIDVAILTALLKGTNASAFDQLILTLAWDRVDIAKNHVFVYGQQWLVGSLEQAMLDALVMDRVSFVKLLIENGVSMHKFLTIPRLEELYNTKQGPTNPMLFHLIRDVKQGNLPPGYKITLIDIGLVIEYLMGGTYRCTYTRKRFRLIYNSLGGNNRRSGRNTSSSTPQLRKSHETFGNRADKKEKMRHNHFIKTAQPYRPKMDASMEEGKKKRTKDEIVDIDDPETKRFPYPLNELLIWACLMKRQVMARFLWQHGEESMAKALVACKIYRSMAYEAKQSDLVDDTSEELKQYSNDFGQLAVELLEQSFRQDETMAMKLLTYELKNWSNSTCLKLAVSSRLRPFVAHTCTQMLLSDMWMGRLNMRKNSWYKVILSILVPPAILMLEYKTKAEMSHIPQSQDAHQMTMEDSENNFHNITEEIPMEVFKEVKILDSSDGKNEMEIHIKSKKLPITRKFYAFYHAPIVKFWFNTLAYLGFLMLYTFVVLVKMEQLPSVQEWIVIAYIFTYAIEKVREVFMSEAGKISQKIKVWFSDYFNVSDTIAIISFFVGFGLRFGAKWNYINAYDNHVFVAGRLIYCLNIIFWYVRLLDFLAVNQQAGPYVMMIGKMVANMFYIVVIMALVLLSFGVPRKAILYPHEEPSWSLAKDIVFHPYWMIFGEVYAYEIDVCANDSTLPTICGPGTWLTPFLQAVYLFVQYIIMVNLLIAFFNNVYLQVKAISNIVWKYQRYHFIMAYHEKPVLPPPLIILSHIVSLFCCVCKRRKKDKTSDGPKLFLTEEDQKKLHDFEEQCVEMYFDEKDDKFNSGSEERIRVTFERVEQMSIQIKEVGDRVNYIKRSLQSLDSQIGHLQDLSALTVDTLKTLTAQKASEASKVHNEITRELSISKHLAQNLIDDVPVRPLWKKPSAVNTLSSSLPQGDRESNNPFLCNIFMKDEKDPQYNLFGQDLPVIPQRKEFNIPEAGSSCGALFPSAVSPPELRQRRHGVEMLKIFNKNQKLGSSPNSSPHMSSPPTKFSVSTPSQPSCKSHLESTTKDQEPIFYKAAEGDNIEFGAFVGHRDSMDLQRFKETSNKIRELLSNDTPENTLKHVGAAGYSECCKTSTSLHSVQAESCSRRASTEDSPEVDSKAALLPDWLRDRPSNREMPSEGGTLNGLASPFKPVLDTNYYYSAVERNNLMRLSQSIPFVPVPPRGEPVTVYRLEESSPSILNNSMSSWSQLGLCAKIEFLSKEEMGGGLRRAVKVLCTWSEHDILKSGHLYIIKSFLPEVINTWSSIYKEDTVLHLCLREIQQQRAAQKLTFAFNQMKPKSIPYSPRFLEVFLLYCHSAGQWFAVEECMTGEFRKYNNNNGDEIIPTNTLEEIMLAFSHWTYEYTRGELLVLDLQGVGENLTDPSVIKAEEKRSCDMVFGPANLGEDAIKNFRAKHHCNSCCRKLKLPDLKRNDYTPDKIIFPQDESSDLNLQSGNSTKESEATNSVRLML

`Oc1ccc2c3c1O[C@H]1c4oc5ccccc5c4C[C@@]4(O)[C@@H](C2)N(CC2CC2)CC[C@]314` [NAL, naltriben] displayed a concentration giving a half-maximal response (EC50) of around 45 µM.
